From patent publication US20230135729A1, “COMPOUND WITH ANTI-SPORE ACTIVITY AND PHARMACEUTICAL COMPOSITION THEREOF” (priority 2020, published 2023) come the findings set out here.

What all share (format): cell-based
In assay [1] the test system is spores of ATCC BBA1870 strain. The experiment in a line: Inhibition of germination of C. difficile spores (MIC), strain ATCC BBA1870. The following applies: Clostridioides difficile, ATCCBBA1870STRAIN, 1 h; strain 1870; sodium taurocholate as germinant, BHIS medium, 37° C., OD580 for 60 min; read-out: MIC (minimum concentration that completely inhibits spore germination). The method in brief:
(§1)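 Germination was followed as the drop in OD580 over 60 min at 37° C in BHIS after adding sodium taurocholate to spores premixed with compound. Spores were first heat-activated (65° C, 30 min) and washed free of self-germinating spores. The inhibition rate was calculated against germinant and non-germinant controls.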

For assay [2], the system named is spores of ATCC 630 strain. As to the kind of experiment: Inhibition of germination of C. difficile spores (MIC), strain ATCC 630. To be noted: Clostridioides difficile, ATCC630, 1 h; strain 630; sodium taurocholate as germinant, BHIS medium, 37° C., OD580 for 60 min; read-out: MIC (minimum concentration that completely inhibits spore germination). The method, boiled down:
as §1

The subject of assay [3] is spores of ATCC 43255 strain. As to the kind of experiment: Inhibition of germination of C. difficile spores (MIC), strain ATCC 43255. To be noted: Clostridioides difficile, ATCC43255, 1 h; strain 43255; sodium taurocholate as germinant, BHIS medium, 37° C., OD580 for 60 min; read-out: MIC (minimum concentration that completely inhibits spore germination). The method, boiled down:
as §1

Converted amounts (≈) assume the structure as drawn.

Consider `CC(C)[C@@H](NC(=O)C[C@@H](C)[C@H]1CC[C@H]2[C@@H]3C(=O)C[C@@H]4CC(=O)CC[C@]4(C)[C@H]3CC[C@]12C)c1ccc(S(=O)(=O)O)s1` [Compound I-83], for which the MIC in assay [1], in assay [2] and in assay [3] was 16 µM (≈ 9.47 µg/mL) each time.

In the case of `CCC(NC(=O)C[C@@H](C)[C@H]1CC[C@H]2[C@@H]3[C@H](O)C[C@@H]4CC(=O)CC[C@]4(C)[C@H]3CC[C@]12C)c1cccs1` (stereo partly drawn) [Compound I-84], the MIC in assay [1], in assay [2] and in assay [3] was 1 µM (≈ 0.5 µg/mL) in each case.

As to `C[C@H](CC(=O)NC(c1cccs1)C1CC1)[C@H]1CC[C@H]2[C@@H]3[C@H](O)C[C@@H]4CC(=O)CC[C@]4(C)[C@H]3CC[C@]12C` (stereo partly drawn) [Compound I-85], the MIC in assay [1], in assay [2] and in assay [3] was 0.5 µM (≈ 0.256 µg/mL) in each case.

In the case of `CCC(NC(=O)C[C@@H](C)[C@H]1CC[C@H]2[C@@H]3[C@H](O)C[C@@H]4CC(=O)CC[C@]4(C)[C@H]3CC[C@]12C)c1ccc(Cl)s1` (stereo partly drawn) [Compound I-86], the MIC in assay [1], in assay [2] and in assay [3] was 0.5 µM (≈ 0.267 µg/mL) in each case.

For `CC[C@H](NC(=O)C[C@@H](C)[C@H]1CC[C@H]2[C@@H]3[C@H](O)C[C@@H]4CC(=O)CC[C@]4(C)[C@H]3CC[C@]12C)c1ccc(Cl)s1` [Compound I-87], the MIC in assay [1] was found to be 256 µM (≈ 137 µg/mL); in assay [2] it was 128 µM (≈ 68.4 µg/mL); in assay [3], 128 µM (≈ 68.4 µg/mL).

`CC[C@@H](NC(=O)C[C@@H](C)[C@H]1CC[C@H]2[C@@H]3[C@H](O)C[C@@H]4CC(=O)CC[C@]4(C)[C@H]3CC[C@]12C)c1ccc(Cl)s1` [Compound I-88]: the MIC in assay [1] came to 0.25 µM (≈ 0.134 µg/mL); in assay [2] it was 0.125 µM (≈ 0.0668 µg/mL); in assay [3], 0.25 µM (≈ 0.134 µg/mL).

Take `CCC(NC(=O)C[C@@H](C)[C@H]1CC[C@H]2[C@@H]3[C@H](O)C[C@@H]4CC(=O)CC[C@]4(C)[C@H]3CC[C@]12C)c1ccc(Br)s1` (stereo partly drawn) [Compound I-89]: the MIC in assay [1], in assay [2] and in assay [3] was 0.5 µM (≈ 0.289 µg/mL) in each case.

Turning to `CC[C@H](NC(=O)C[C@@H](C)[C@H]1CC[C@H]2[C@@H]3[C@H](O)C[C@@H]4CC(=O)CC[C@]4(C)[C@H]3CC[C@]12C)c1ccc(Br)s1` [Compound I-90], the MIC in assay [1], in assay [2] and in assay [3] was over 256 µM in each case.

With `CC[C@@H](NC(=O)C[C@@H](C)[C@H]1CC[C@H]2[C@@H]3[C@H](O)C[C@@H]4CC(=O)CC[C@]4(C)[C@H]3CC[C@]12C)c1ccc(Br)s1` [Compound I-91], the MIC in assay [1], in assay [2] and in assay [3] was 0.25 µM (≈ 0.145 µg/mL) throughout.

Turning to `CCC(NC(=O)C[C@@H](C)[C@H]1CC[C@H]2[C@@H]3[C@H](O)C[C@@H]4CC(=O)CC[C@]4(C)[C@H]3CC[C@]12C)c1ccc(S(=O)(=O)O)s1` (stereo partly drawn) [Compound I-92], the values for the MIC in assay [1], in assay [2] and in assay [3] were 16 µM (≈ 9.28 µg/mL), 16 µM (≈ 9.28 µg/mL) and 32 µM (≈ 18.6 µg/mL), respectively.

As for `CC[C@H](NC(=O)C[C@@H](C)[C@H]1CC[C@H]2[C@@H]3[C@H](O)C[C@@H]4CC(=O)CC[C@]4(C)[C@H]3CC[C@]12C)c1ccc(S(=O)(=O)O)s1` [Compound I-93], the MIC in assay [1], in assay [2] and in assay [3] was over 256 µM in each case.

With `CC[C@@H](NC(=O)C[C@@H](C)[C@H]1CC[C@H]2[C@@H]3[C@H](O)C[C@@H]4CC(=O)CC[C@]4(C)[C@H]3CC[C@]12C)c1ccc(S(=O)(=O)O)s1` [Compound I-94], the results for the MIC in assay [1], in assay [2] and in assay [3] were 8 µM (≈ 4.64 µg/mL), 8 µM (≈ 4.64 µg/mL) and 16 µM (≈ 9.28 µg/mL), respectively.

As for `CC(C)C(NC(=O)C[C@@H](C)[C@H]1CC[C@H]2[C@@H]3[C@H](O)C[C@@H]4CC(=O)CC[C@]4(C)[C@H]3CC[C@]12C)c1ccc(Cl)s1` (stereo partly drawn) [Compound I-95], the MIC in assay [1], in assay [2] and in assay [3] was 0.25 µM (≈ 0.137 µg/mL) throughout.

As for `CC(C)[C@H](NC(=O)C[C@@H](C)[C@H]1CC[C@H]2[C@@H]3[C@H](O)C[C@@H]4CC(=O)CC[C@]4(C)[C@H]3CC[C@]12C)c1ccc(Cl)s1` [Compound I-96], the MIC in assay [1], in assay [2] and in assay [3] was 4 µM (≈ 2.19 µg/mL) throughout.

Take `CC(C)[C@@H](NC(=O)C[C@@H](C)[C@H]1CC[C@H]2[C@@H]3[C@H](O)C[C@@H]4CC(=O)CC[C@]4(C)[C@H]3CC[C@]12C)c1ccc(Cl)s1` [Compound I-97]: the MIC in assay [1], in assay [2] and in assay [3] was 0.125 µM (≈ 0.0685 µg/mL) throughout.

As for `CC(C)C(NC(=O)C[C@@H](C)[C@H]1CC[C@H]2[C@@H]3[C@H](O)C[C@@H]4CC(=O)CC[C@]4(C)[C@H]3CC[C@]12C)c1ccc(Br)s1` (stereo partly drawn) [Compound I-98], the MIC in assay [1], in assay [2] and in assay [3] was 0.5 µM (≈ 0.296 µg/mL) throughout.

`CC(C)[C@H](NC(=O)C[C@@H](C)[C@H]1CC[C@H]2[C@@H]3[C@H](O)C[C@@H]4CC(=O)CC[C@]4(C)[C@H]3CC[C@]12C)c1ccc(Br)s1` [Compound I-99]: the MIC was over 256 µM in assay [1], 256 µM (≈ 152 µg/mL) in assay [2] and 256 µM (≈ 152 µg/mL) in assay [3].

Turning to `CC(C)[C@@H](NC(=O)C[C@@H](C)[C@H]1CC[C@H]2[C@@H]3[C@H](O)C[C@@H]4CC(=O)CC[C@]4(C)[C@H]3CC[C@]12C)c1ccc(Br)s1` [Compound I-100], the MIC in assay [1], in assay [2] and in assay [3] was 0.25 µM (≈ 0.148 µg/mL) in each case.

For `CC(C)C(NC(=O)C[C@@H](C)[C@H]1CC[C@H]2[C@@H]3[C@H](O)C[C@@H]4CC(=O)CC[C@]4(C)[C@H]3CC[C@]12C)c1ccc(S(=O)(=O)O)s1` (stereo partly drawn) [Compound I-101], the MIC in assay [1], in assay [2] and in assay [3] was 32 µM (≈ 19 µg/mL) each time.

Turning to `CC(C)[C@H](NC(=O)C[C@@H](C)[C@H]1CC[C@H]2[C@@H]3[C@H](O)C[C@@H]4CC(=O)CC[C@]4(C)[C@H]3CC[C@]12C)c1ccc(S(=O)(=O)O)s1` [Compound I-102], the MIC in assay [1], in assay [2] and in assay [3] was over 256 µM each time.

As for `CC(C)[C@@H](NC(=O)C[C@@H](C)[C@H]1CC[C@H]2[C@@H]3[C@H](O)C[C@@H]4CC(=O)CC[C@]4(C)[C@H]3CC[C@]12C)c1ccc(S(=O)(=O)O)s1` [Compound I-103], the MIC in assay [1], in assay [2] and in assay [3] was 16 µM (≈ 9.5 µg/mL) throughout.

For `CCC(NC(=O)C[C@@H](C)[C@H]1CC[C@H]2[C@@H]3[C@H](OS(=O)(=O)O)C[C@@H]4CC(=O)CC[C@]4(C)[C@H]3CC[C@]12C)c1ccc(Cl)s1` (stereo partly drawn) [Compound I-104], the MIC in assay [1], in assay [2] and in assay [3] was 1 µM (≈ 0.614 µg/mL) each time.

As to `CC[C@H](NC(=O)C[C@@H](C)[C@H]1CC[C@H]2[C@@H]3[C@H](OS(=O)(=O)O)C[C@@H]4CC(=O)CC[C@]4(C)[C@H]3CC[C@]12C)c1ccc(Cl)s1` [Compound I-105], the MIC in assay [1], in assay [2] and in assay [3] was over 256 µM throughout.

On to `CC[C@@H](NC(=O)C[C@@H](C)[C@H]1CC[C@H]2[C@@H]3[C@H](OS(=O)(=O)O)C[C@@H]4CC(=O)CC[C@]4(C)[C@H]3CC[C@]12C)c1ccc(Cl)s1` [Compound I-106], for which the MIC in assay [1] is 0.5 µM (≈ 0.307 µg/mL); in assay [2], 0.5 µM (≈ 0.307 µg/mL); in assay [3], 0.25 µM (≈ 0.154 µg/mL).

Consider `CCC(NC(=O)C[C@@H](C)[C@H]1CC[C@H]2[C@@H]3[C@H](OS(=O)(=O)O)C[C@@H]4CC(=O)CC[C@]4(C)[C@H]3CC[C@]12C)c1ccc(Br)s1` (stereo partly drawn) [Compound I-107], for which the MIC in assay [1], in assay [2] and in assay [3] was 1 µM (≈ 0.659 µg/mL) throughout.

As for `CC[C@H](NC(=O)C[C@@H](C)[C@H]1CC[C@H]2[C@@H]3[C@H](OS(=O)(=O)O)C[C@@H]4CC(=O)CC[C@]4(C)[C@H]3CC[C@]12C)c1ccc(Br)s1` [Compound I-108], the MIC in assay [1], in assay [2] and in assay [3] was over 256 µM each time.

`CC[C@@H](NC(=O)C[C@@H](C)[C@H]1CC[C@H]2[C@@H]3[C@H](OS(=O)(=O)O)C[C@@H]4CC(=O)CC[C@]4(C)[C@H]3CC[C@]12C)c1ccc(Br)s1` [Compound I-109]: the MIC stood at 0.5 µM (≈ 0.329 µg/mL) in assay [1], 0.5 µM (≈ 0.329 µg/mL) in assay [2] and 0.25 µM (≈ 0.165 µg/mL) in assay [3].

`CC(C)C(NC(=O)C[C@@H](C)[C@H]1CC[C@H]2[C@@H]3[C@H](OS(=O)(=O)O)C[C@@H]4CC(=O)CC[C@]4(C)[C@H]3CC[C@]12C)c1ccc(Cl)s1` (stereo partly drawn) [Compound I-110]: the MIC in assay [1] stood at 1 µM (≈ 0.628 µg/mL); in assay [2], 1 µM (≈ 0.628 µg/mL); in assay [3], 0.5 µM (≈ 0.314 µg/mL).
